Test results published in ChEMBL document CHEMBL1201862, “PubChem BioAssay data set” (2004).
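Cells were grown in 96-well plates and exposed to each compound for 48 hours at five concentrations; endpoints were interpolated linearly between bracketing concentrations, or set to the highest concentration if not reached. Abbreviation: GI50, concentration required for 50% inhibition of growth.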 Calls of active or inactive are those of the source. Rule as the data show it: active = GI50 up to about 1.1 µM and inactive = higher.

What was measured:
Assay in all cases: growth of human tumour cells (NCI), 48 h
SR = system: SR
UACC-257 = system: UACC-257
SW-620 = system: SW-620
A549 = system: A549
HL-60 = system: HL-60
SNB-19 = system: SNB-19
SN12C = system: SN12C
M19-MEL = system: M19-MEL
SK-OV-3 = system: SK-OV-3
UACC-62 = system: UACC-62
NCI-H23 = system: NCI-H23
SK-MEL-5 = system: SK-MEL-5
K562 = system: K562
OVCAR-3 = system: OVCAR-3
SF-539 = system: SF-539
HT-29 = system: HT-29
KM-20L2 = system: KM-20L2
SNB-75 = system: SNB-75
SF-268 = system: SF-268
TK-10 = system: TK-10
DMS-114 = system: DMS-114
Malme-3M = system: Malme-3M
SK-MEL-2 = system: SK-MEL-2
M14 = system: M14
EKVX = system: EKVX
KM12 = system: KM12
OVCAR-4 = system: OVCAR-4
RXF 393 = system: RXF 393
HOP-62 = system: HOP-62
MOLT-4 = system: MOLT-4
XF498 = system: XF498
LXFL 529 = system: LXFL 529
HCT-116 = system: HCT-116
SF-295 = system: SF-295
HOP-92 = system: HOP-92
IGROV-1 = system: IGROV-1
SK-MEL-28 = system: SK-MEL-28
NCI-H522 = system: NCI-H522
NCI-H460 = system: NCI-H460
CCRF-CEM = system: CCRF-CEM
RPMI-8226 = system: RPMI-8226
COLO 205 = system: COLO 205
U-251 = system: U-251
UO-31 = system: UO-31
OVCAR-8 = system: OVCAR-8
ACHN = system: ACHN
HCT-15 = system: HCT-15
786-0 = system: 786-0
NCI-H226 = system: NCI-H226
SNB-78 = system: SNB-78
HCC 2998 = system: HCC 2998
LOX IMVI = system: LOX IMVI
A498 = system: A498
DMS-273 = system: DMS-273
CAKI-1 = system: CAKI-1
OVCAR-5 = system: OVCAR-5
DLD-1 = system: DLD-1
HOP-18 = system: HOP-18

In the case of `O=C1C(Cl)N(c2ccc(Cl)cc2Cl)C1c1c[nH]c2ccccc12` (stereo not given), the GI50 (SR) was 59.8 µM (inactive), the GI50 (UACC-257) was > 100 µM (inactive) and the GI50 (SW-620) was > 100 µM (inactive). For the same molecule, the GI50 (A549) was > 100 µM (inactive), the GI50 (HL-60) was > 100 µM (inactive) and the GI50 (SNB-19) was 6.01 µM (inactive). For the same molecule, the GI50 (SN12C) was > 100 µM (inactive), the GI50 (M19-MEL) was > 100 µM (inactive) and the GI50 (SK-OV-3) was > 100 µM (inactive). The GI50 (UACC-62) was > 100 µM (inactive), the GI50 (NCI-H23) was 92.3 µM (inactive) and the GI50 (SK-MEL-5) was > 100 µM (inactive). For the same molecule, the GI50 (K562) was > 100 µM (inactive), the GI50 (OVCAR-3) was 78.3 µM (inactive) and the GI50 (SF-539) was > 100 µM (inactive). For the same molecule, the GI50 (HT-29) was > 100 µM (inactive), the GI50 (KM-20L2) was > 100 µM (inactive) and the GI50 (SNB-75) was 6.49 µM (inactive). The GI50 (SF-268) was > 100 µM (inactive), the GI50 (TK-10) was > 100 µM (inactive) and the GI50 (DMS-114) was > 100 µM (inactive). The GI50 (Malme-3M) was > 100 µM (inactive), the GI50 (SK-MEL-2) was > 100 µM (inactive) and the GI50 (M14) was > 100 µM (inactive). The GI50 (EKVX) was 54 µM (inactive), the GI50 (KM12) was > 100 µM (inactive) and the GI50 (OVCAR-4) was > 100 µM (inactive). For the same molecule, the GI50 (RXF 393) was 74 µM (inactive), the GI50 (HOP-62) was > 100 µM (inactive) and the GI50 (MOLT-4) was > 100 µM (inactive). For the same molecule, the GI50 (XF498) was > 100 µM (inactive), the GI50 (LXFL 529) was > 100 µM (inactive) and the GI50 (HCT-116) was 91.2 µM (inactive). The GI50 (SF-295) was > 100 µM (inactive), the GI50 (HOP-92) was 44.5 µM (inactive) and the GI50 (IGROV-1) was > 100 µM (inactive). For the same molecule, the GI50 (SK-MEL-28) was > 100 µM (inactive), the GI50 (NCI-H522) was > 100 µM (inactive) and the GI50 (NCI-H460) was > 100 µM (inactive). For the same molecule, the GI50 (CCRF-CEM) was > 100 µM (inactive), the GI50 (RPMI-8226) was > 100 µM (inactive) and the GI50 (COLO 205) was > 100 µM (inactive). For the same molecule, the GI50 (U-251) was > 100 µM (inactive), the GI50 (UO-31) was 4.75 µM (inactive) and the GI50 (OVCAR-8) was > 100 µM (inactive).
With `Nc1nc(N)c2ncn(CCOC(c3ccccc3)P(=O)(O)O)c2n1` (stereo not given) the GI50 (SR) was > 100 µM (inactive), the GI50 (ACHN) was > 100 µM (inactive) and the GI50 (HCT-15) was > 100 µM. For the same molecule, the GI50 (UACC-257) was > 100 µM (inactive), the GI50 (SW-620) was > 100 µM (inactive) and the GI50 (A549) was > 100 µM (inactive). For the same molecule, the GI50 (HL-60) was > 100 µM (inactive), the GI50 (786-0) was > 100 µM (inactive) and the GI50 (SNB-19) was > 100 µM (inactive). The GI50 (SN12C) was > 100 µM (inactive), the GI50 (M19-MEL) was > 100 µM (inactive) and the GI50 (SK-OV-3) was > 100 µM (inactive). The GI50 (UACC-62) was > 100 µM (inactive), the GI50 (NCI-H23) was > 100 µM (inactive) and the GI50 (SK-MEL-5) was > 100 µM (inactive). The GI50 (OVCAR-3) was > 100 µM (inactive), the GI50 (SF-539) was > 100 µM (inactive) and the GI50 (HT-29) was > 100 µM (inactive). For the same molecule, the GI50 (KM-20L2) was > 100 µM (inactive), the GI50 (SNB-75) was > 100 µM (inactive) and the GI50 (SF-268) was > 100 µM (inactive). The GI50 (TK-10) was > 100 µM (inactive), the GI50 (DMS-114) was > 100 µM (inactive) and the GI50 (Malme-3M) was > 100 µM (inactive). The GI50 (SK-MEL-2) was > 100 µM (inactive), the GI50 (EKVX) was > 100 µM (inactive) and the GI50 (NCI-H226) was > 100 µM (inactive). The GI50 (KM12) was > 100 µM (inactive), the GI50 (RXF 393) was > 100 µM (inactive) and the GI50 (SNB-78) was > 100 µM (inactive). For the same molecule, the GI50 (HCC 2998) was > 100 µM (inactive), the GI50 (LOX IMVI) was > 100 µM (inactive) and the GI50 (A498) was > 100 µM (inactive). For the same molecule, the GI50 (MOLT-4) was > 100 µM (inactive), the GI50 (XF498) was > 100 µM (inactive) and the GI50 (HCT-116) was > 100 µM (inactive). For the same molecule, the GI50 (DMS-273) was > 100 µM (inactive), the GI50 (SF-295) was > 100 µM (inactive) and the GI50 (IGROV-1) was > 100 µM (inactive). The GI50 (SK-MEL-28) was > 100 µM (inactive), the GI50 (NCI-H522) was > 100 µM (inactive) and the GI50 (NCI-H460) was > 100 µM (inactive). For the same molecule, the GI50 (CAKI-1) was > 100 µM (inactive), the GI50 (CCRF-CEM) was > 100 µM (inactive) and the GI50 (COLO 205) was > 100 µM (inactive). For the same molecule, the GI50 (OVCAR-5) was > 100 µM (inactive), the GI50 (U-251) was > 100 µM (inactive) and the GI50 (DLD-1) was > 100 µM (inactive). The GI50 (UO-31) was > 100 µM (inactive) and the GI50 (OVCAR-8) was > 100 µM (inactive).
For `CCC1(O)C(=O)OCc2c1cc1n(c2=O)Cc2cc3cc(OC)c(OC)cc3nc2-1` (stereo not given), the GI50 (SR) was 2.29 µM (inactive), the GI50 (ACHN) was 4.5 µM (inactive) and the GI50 (UACC-257) was > 100 µM (inactive). The GI50 (A549) was 33.1 µM (inactive), the GI50 (HL-60) was 12 µM (inactive) and the GI50 (786-0) was 6.28 µM (inactive). The GI50 (SNB-19) was 16 µM (inactive), the GI50 (SN12C) was 5.5 µM (inactive) and the GI50 (SK-OV-3) was 19.7 µM (inactive). For the same molecule, the GI50 (UACC-62) was > 10 µM (inactive), the GI50 (NCI-H23) was 15 µM (inactive) and the GI50 (SK-MEL-5) was 17.5 µM (inactive). For the same molecule, the GI50 (K562) was 78.5 µM (inactive), the GI50 (HOP-18) was 56.8 µM (inactive) and the GI50 (OVCAR-3) was 83.4 µM (inactive). For the same molecule, the GI50 (SF-539) was 5.74 µM (inactive), the GI50 (HT-29) was > 100 µM (inactive) and the GI50 (KM-20L2) was > 100 µM (inactive). For the same molecule, the GI50 (SNB-75) was 15 µM (inactive), the GI50 (SF-268) was 11.4 µM (inactive) and the GI50 (TK-10) was > 100 µM (inactive). The GI50 (DMS-114) was 12.8 µM (inactive), the GI50 (Malme-3M) was > 100 µM (inactive) and the GI50 (M14) was 26.4 µM (inactive). The GI50 (EKVX) was > 100 µM (inactive), the GI50 (NCI-H226) was 14.8 µM (inactive) and the GI50 (KM12) was > 100 µM (inactive). For the same molecule, the GI50 (OVCAR-4) was > 100 µM (inactive), the GI50 (RXF 393) was 16.9 µM (inactive) and the GI50 (HOP-62) was 2.79 µM (inactive). The GI50 (HCC 2998) was 36.7 µM (inactive), the GI50 (LOX IMVI) was 7.19 µM (inactive) and the GI50 (A498) was 28.1 µM (inactive). The GI50 (MOLT-4) was 4.85 µM (inactive), the GI50 (XF498) was 34.3 µM (inactive) and the GI50 (LXFL 529) was > 100 µM (inactive). For the same molecule, the GI50 (HCT-116) was 22.3 µM (inactive), the GI50 (SF-295) was 10.9 µM (inactive) and the GI50 (HOP-92) was > 100 µM (inactive). For the same molecule, the GI50 (IGROV-1) was 13.9 µM (inactive), the GI50 (SK-MEL-28) was > 100 µM (inactive) and the GI50 (NCI-H522) was 8.61 µM (inactive). For the same molecule, the GI50 (NCI-H460) was 3.49 µM (inactive), the GI50 (CCRF-CEM) was 2.81 µM (inactive) and the GI50 (RPMI-8226) was 46.8 µM (inactive). For the same molecule, the GI50 (COLO 205) was 32.6 µM (inactive), the GI50 (OVCAR-5) was > 100 µM (inactive) and the GI50 (U-251) was 6.52 µM (inactive). The GI50 (UO-31) was 32 µM (inactive) and the GI50 (OVCAR-8) was 82.4 µM (inactive).
